This note sets out measurements from publication PMC3568144, “Pseudomonas aeruginosa PA1006 Is a Persulfide-Modified Protein That Is Critical for Molybdenum Homeostasis” (PLoS ONE, 2013).

Data set [1] addresses T1, His6-PA3667/CsdA (Pseudomonas aeruginosa, UniProt Q9HXX3).
T1 construct: gene csd; full length, His6 tag kept, pET24D, E. coli BL21pLysS, Ni-NTA and MonoQ; dimer (~100 kDa) by gel filtration
T1 sequence (Q9HXX3 1-401): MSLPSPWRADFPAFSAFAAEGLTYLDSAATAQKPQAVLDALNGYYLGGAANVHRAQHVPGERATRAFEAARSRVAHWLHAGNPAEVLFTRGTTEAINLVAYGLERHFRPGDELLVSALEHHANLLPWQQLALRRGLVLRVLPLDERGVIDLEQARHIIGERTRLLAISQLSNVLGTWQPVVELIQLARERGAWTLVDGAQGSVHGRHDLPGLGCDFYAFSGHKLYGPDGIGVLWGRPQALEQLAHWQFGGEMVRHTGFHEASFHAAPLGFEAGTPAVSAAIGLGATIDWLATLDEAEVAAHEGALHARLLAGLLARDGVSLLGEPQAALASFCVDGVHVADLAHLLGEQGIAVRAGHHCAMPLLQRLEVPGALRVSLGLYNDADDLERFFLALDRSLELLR
The experiment in a line: […] transfer to the enzyme, non-reducing SDS-PAGE with phosphorimaging. In kind it is biochemical. As to conditions: labelled compound; 50 µM 35S Cys, 2 µM enzyme, pH 7.5, 37°C, 10 min.

In data set [2] the target is T1, His6-PA3667/CsdA. The experiment in a line: absorption spectrum of purified enzyme (~[…] nm band, reducible with sodium borohydride). To be noted: 100 µM cofactor in purification and storage buffers. In kind it is binding.
Data set [3] concerns the molecule itself. Description: SEC; analytical gel filtration, Superose 6 column (GE Life Sciences), FPLC. In general terms: SEC sorts molecules by how far they enter the pores of the column.

With `N[C@@H](CS)C(=O)O` [Cys], at His6-PA3667/CsdA [1], the “35S transfer to the enzyme, non-reducing SDS-PAGE with phosphorimaging” value is “PA3667/CsdA displayed Cys desulfurase activity and was capable of transferring”.
As to `Cc1ncc(COP(=O)(O)O)c(C=O)c1O` [pyridoxal phosphate], the “absorption spectrum of purified enzyme (~400 nm band, reducible with sodium boro)” value at His6-PA3667/CsdA [2] was “absorbance spectrum of His6-PA3667/CsdA indicated that it contained a pyridoxal phosphate cofactor”.

B1: His6-PA3667/CsdA purified from E. coli (enzyme, Pseudomonas aeruginosa, UniProt Q9HXX3 1-401, looked up)
chain: T1 sequence (Q9HXX3 1-401)
notes: PA3667/CsdA, cysteine desulfurase, Pseudomonas aeruginosa; Contains a pyridoxal phosphate cofactor; 100 µM pyridoxal phosphate was added to the buffers; source: E. coli BL21pLysS (pET24D), purified (Ni2+-NTA agarose, MonoQ)
As to B1, in data set [3], the “stoichiometry N” value was determined as 2.

By stoichiometry N is commonly meant a count of units in the complex or per binding partner.
